This is an account of results in PubChem BioAssay (NCI).

Experiment in all cases: DTP human tumour cell line panel, 48 h
For assay [1], the system named is M14 melanoma.
Assay [2] concerns NCI-H226 lung.
Assay [3] deals with NCI/ADR-RES ovarian.
Assay [4] relates to OVCAR-4 ovarian.
For assay [5], the system named is SK-MEL-2 melanoma.
Assay [6] concerns SNB-19 CNS.
The test system of assay [7] is TK-10 renal.
Assay [8] relates to A498 renal.
The test system of assay [9] is HCT-116 colon.

“And” between values parts separate entries of the source, which are not always exact repeats. Identical values can stand only once.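 In this assay, cells in 96-well plates receive the compound at five concentrations for 48 hours. Endpoints are linearly interpolated between the surrounding concentrations. The concentration for 50% growth inhibition is given as GI50. The concentration for full growth arrest is given as TGI.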

A word on the GI50: it is the concentration that inhibits growth by half. As a reminder, the TGI is the concentration giving total growth inhibition. On to `CC1(C)CC2CC(C)(CN2c2ncnc3ccc(Br)cc23)C1` (stereo not given), for which the GI50 is 11 µM in assay [1]; 3.32 µM in [2]; 12.8 µM in assay [3]; 14.1 µM in assay [4]; 28.8 µM in [5]; 14.4 µM in [6]. Moreover, the GI50 in assay [7] was 11.4 µM. In addition, the TGI in assay [1] was 22.9 µM; in assay [2], 16.2 µM; in assay [3], 25.4 µM; in assay [4], 27.1 µM; in [5], > 100 µM; in assay [6], 30.5 µM. The compound also yielded a TGI in [7] of 23.6 µM.

On to `CCOC(=O)c1c(C(F)(F)F)oc2c1ccc1nc3nonc3nc12`, for which the concentration for total growth inhibition (TGI) in [8] was 30.7 µM; in assay [9] it was 32.1 µM; in [1], 21 µM; in assay [2], 36.1 µM; in assay [4], 24.9 µM; in assay [5], 33.8 µM. For the same compound, the TGI in [6] was 38.2 µM; in [7], 36.4 µM.

For the compound `O=C(/C=C/c1ccc(Cl)c(Cl)c1)C1CCC(Cl)CC1` (stereo not given), the TGI came to 83.1 µM in [8]; 25.1 µM in [9]; 33.4 µM in [1]; 94.8 µM in assay [2]; 39.6 µM in [4]; 39 µM in assay [6]. The same compound came in with a TGI in [7] of 90.3 µM.

Turning to `CC(C)NC(=O)O/N=C1\CCC2[C@@H]3CC=C4C[C@@H](OC(=O)NC(C)C)CC[C@]4(C)C3CC[C@]12C` (stereo not given in full), the TGI in assay [8] was > 30.3 µM; in assay [9], 4.94 µM; in assay [1] it was 1.95 µM; in assay [2], > 100 µM; in assay [4], 3.5 µM; in assay [5], 2.9 µM. The TGI in [6] worked out at 6.05 µM; in assay [7], 3.15 µM.

In the case of `O=C1c2ccccc2C(=O)c2sc(Nc3ccc(Cl)c(Cl)c3)nc21`, the concentration for total growth inhibition (TGI) in [8] is 31.6 µM; in [9], 7.3 µM; in [1], 9.86 µM; in assay [2], 16.2 µM; in assay [4], 5.69 µM; in [5] it was 33.2 µM. Also, the TGI in [6] worked out at 32.9 µM; in [7], 21.8 µM.

Consider `O=C1CCC(=O)C(C(=O)CCC(=O)Nc2cccc(Cl)c2)C1` (stereo not given), for which the TGI in [8], in assay [9], in assay [1], in [2], in assay [6] and in assay [7] was > 100 µM in each case.

In the case of `OC1C2C=CCC1CCC2` (stereo not given), the TGI in assay [8], in [9], in [1], in [2], in [4] and in assay [5] was > 100 µM each time. For the same compound, the TGI in [6] and in assay [7] was > 100 µM in each case.

Take `COC(=O)C(=O)C1CCCCC(C2=NC3NN=C(N)N3C2=O)C1=O` (stereo not given): the TGI in assay [8], in assay [9], in assay [1], in assay [2], in [4] and in assay [5] was > 100 µM throughout. Moreover, the TGI in [6] and in assay [7] was > 100 µM in each case.

Consider `O=C1C2Nc3ccccc3SC2C(=O)N1c1cccc([N+](=O)[O-])c1` (stereo not given), for which the TGI in assay [8], in assay [9], in [1], in assay [2], in assay [4] and in [5] was > 100 µM each time. The concentration for total growth inhibition (TGI) in assay [6] and in assay [7] was > 100 µM throughout.

Regarding `C=C1CC(C/C=C(\C)CC2CC(=C)C(=O)O2)OC1=O` (stereo not given), the TGI in [8], in assay [9], in assay [1], in assay [4], in [5] and in [6] was > 100 µM each time. Also, the TGI in [7] was > 100 µM.

In the case of `Cc1cccc(N=C2NC(=O)C(CC(=O)Nc3ccc(Cl)cc3C)S2)c1` (stereo not given), the TGI in assay [8], in [1], in assay [2], in assay [4], in [5] and in assay [6] was > 100 µM each time. The TGI in [7] is > 100 µM.

Take `CC(C)(C)C(=O)[CH-]C(=O)C(F)(F)C(F)(F)C(F)(F)F.CC(C)(C)C(=O)[CH-]C(=O)C(F)(F)C(F)(F)C(F)(F)F.[O-]CC1OC(O)C(O)C(O)C1O.[O-]CC1OC(O)C(O)C(O)C1O.[Ti+4]`: the TGI in [9], in assay [1], in assay [2], in [4], in assay [5] and in assay [6] was > 100 µM in each case. The TGI in assay [7] is > 100 µM.

In the case of `O=c1[nH]c2c(O)cccc2c2cc3c(c(O)c12)OCO3`, the TGI came to 56.5 µM in [8]; 54.1 µM in assay [9]; 52.4 µM in assay [1]; 55 µM in assay [2]; 43.6 µM in [4]; 70.5 µM in [6]. Besides, the TGI in [7] was > 100 µM.

As for `Cc1cc(=O)[nH]c(CNC(=O)Cc2ccccc2)n1`, the TGI in assay [8], in [1], in assay [2], in assay [4], in assay [5] and in assay [6] was > 100 µM each time. For the same compound, the TGI in assay [7] was > 100 µM.

Regarding `CCOc1ccc(NC(=O)CCC(=O)NN)cc1`, the total growth inhibition concentration (TGI) in assay [1], in assay [2], in [4], in assay [5], in assay [6] and in assay [7] was > 100 µM in each case.

As for `O=[N+]([O-])c1cc(/C=N/NS(=O)(=O)c2ccc(F)cc2)c(O)c([N+](=O)[O-])c1`, the TGI in assay [8] was 78.1 µM; in [9], > 100 µM; in [1] it was 52.2 µM; in assay [4] it was > 100 µM; in assay [5], > 100 µM; in [6] it was > 100 µM. Also, the TGI in assay [7] is > 100 µM.

As to `CON`, the GI50 in assay [9], in assay [1], in assay [2], in [3], in [4] and in assay [5] was > 100 µM each time. Besides, the GI50 in [6] and in assay [7] was > 100 µM throughout. The TGI in [9], in [1], in assay [2], in assay [3], in [4] and in assay [5] was > 100 µM each time. In addition, the TGI in [6] and in [7] was > 100 µM throughout.

As for `CC(C)(C)C[P+](C)(C)c1ccccc1`, the TGI in assay [9], in [1], in assay [2], in assay [4], in [5] and in assay [6] was > 100 µM throughout. Moreover, the TGI in [7] is > 100 µM.

With `CCc1oc2ccc(OC)c3c2c1C=CC=C3`, the TGI in assay [8], in assay [1], in assay [2], in assay [4], in [5] and in assay [6] was > 100 µM in each case. The TGI in assay [7] is > 100 µM.

On to `CC(C)[O-].CC(C)[O-].[O-]c1cccc2cccnc12.[O-]c1cccc2cccnc12.[Ti+4]`, for which the GI50 in [9] was 3.24 µM and 3.87 µM; in [1] it was 9.68 µM and 10.8 µM; in assay [2], > 100 µM; in assay [5], 31.3 µM; in assay [6], 61.6 µM; in assay [7], 34.4 µM. The total growth inhibition concentration (TGI) in assay [9], in [1], in assay [2], in assay [5], in assay [6] and in assay [7] was > 100 µM throughout.

With `CP(C)C.[Ag][I]`, the TGI is > 100 µM in [9]; > 100 µM in [1]; > 100 µM in [2]; 69.5 µM in assay [4]; > 100 µM in assay [5]; > 100 µM in assay [6]. Further, the TGI in assay [7] was > 100 µM.

With `CCOC(=O)CNC(=O)C(CSC(=O)N(C)O)NC(=O)CCC(N)C(=O)O` (stereo not given), the GI50 in [8], in assay [9], in assay [1], in [2], in [4] and in assay [5] was > 2000 µM throughout. The GI50 in assay [6] and in assay [7] was > 2000 µM in each case. Also, the TGI in assay [8], in assay [1], in assay [2], in [4], in assay [5] and in assay [6] was > 2000 µM throughout. For the same compound, the TGI in assay [7] is > 2000 µM.

For `N#C/C(=C\c1ccc(O)cc1O)C(N)=O`, the TGI in assay [8], in [9], in assay [1], in [2], in [4] and in assay [5] was > 100 µM throughout. In addition, the TGI in assay [6] and in [7] was > 100 µM throughout.

Turning to `CCC[CH2][Sn]1([CH2]CCC)[O]C(=O)c2cc(C)ccc2[O]1`, the GI50 in assay [8] is 0.565 µM; in [9], 1.12 µM; in assay [1], 0.342 µM; in [2], 1.85 µM; in assay [4], 0.707 µM; in [5] it was 0.303 µM. For the same compound, the GI50 in assay [6] is 0.7 µM; in assay [7], 0.385 µM. Besides, the concentration for total growth inhibition (TGI) came out at 1.79 µM in [8]; 2.33 µM in assay [9]; 1.5 µM in assay [1]; 3.37 µM in [2]; 2.06 µM in assay [4]; 0.808 µM in assay [5]. Also, the values for the TGI in assay [6] and in assay [7] were 1.93 µM and 1.18 µM, respectively.

As to `CO[C@@]12CC(=O)/C(=C(O)\C=C\c3ccccc3)C(=O)[C@]1(OC)Cc1ccccc1O2`, the TGI in [8] was 90.7 µM; in [9] it was > 100 µM; in [1], > 100 µM; in assay [2], 50.2 µM; in [4], > 100 µM; in assay [5], > 100 µM. The TGI in assay [6] is > 100 µM; in [7], 73.4 µM.

Consider `Nn1c(N=Nc2c(O)[nH]c3ccccc23)n[nH]c1=S`, for which the TGI in assay [8], in [9], in [1], in assay [2], in assay [4] and in [5] was > 100 µM in each case. The TGI in assay [6] and in assay [7] was > 100 µM throughout.

Take `CC12OC3CC(O1)C1(C=O)C4CCC5(C)C(c6ccc(=O)oc6)CCC5(O)C4CCC1(C3)O2` (stereo not given): the TGI worked out at 1.35 µM in [8]; 0.399 µM in assay [9]; 0.596 µM in assay [1]; 1.23 µM in assay [2]; 0.308 µM in assay [4]; 0.79 µM in assay [5]. The results for the TGI in assay [6] and in assay [7] were 1.78 µM and 0.472 µM, respectively.

As to `N#CC12Cc3ccc4c(c3-c3cccc(c31)CCN2C(=O)c1ccccc1)OCO4` (stereo not given), the TGI in [8], in assay [9], in assay [1], in assay [2], in assay [6] and in assay [7] was > 100 µM in each case.

Regarding `CC1=NN(c2ccccc2)C(=O)C1N=Nc1ccc(Br)c(C)c1` (stereo not given), the TGI in assay [8], in assay [9], in assay [1], in assay [2], in assay [4] and in assay [5] was > 100 µM throughout. Also, the TGI in assay [6] and in assay [7] was > 100 µM in each case.

On to `C[C@]12CCCC(=O)C1C[C@H](C(=O)O)CC2` (stereo not given in full), for which the TGI in [8], in [9], in [1], in assay [2], in assay [4] and in [5] was > 100 µM in each case. Further, the TGI in assay [6] and in assay [7] was > 100 µM in each case.

For the compound `NNC(=S)N/N=C/C(Cl)=C(\Cl)C(=O)O`, the total growth inhibition concentration (TGI) in [8], in [9], in assay [1], in assay [2], in assay [4] and in assay [5] was > 100 µM in each case. For the same compound, the TGI in assay [6] and in [7] was > 100 µM each time.
